Source: ChEMBL document CHEMBL1201862, “PubChem BioAssay data set” (2004)
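Where inhibition never reached the appropriate level, the endpoint shown equals the highest concentration tested. Otherwise, values were interpolated linearly from a five-concentration, 48-hour dose response in 96-well plates. Abbreviation: GI50, concentration required for 50% inhibition of growth.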 The source made the active and inactive calls. No stated cut-off is given here; in the data, active = GI50 up to about 1.1 µM and inactive = higher.

How the values were obtained:
Experiment in all cases: NCI tumour cell line growth inhibition, 48 h
HOP-92 = tested on: HOP-92
MCF7 = tested on: MCF7
LOX IMVI = tested on: LOX IMVI
PC-3 = tested on: PC-3
T47D = tested on: T47D
SR = tested on: SR
MDA-MB-231 = tested on: MDA-MB-231
NCI/ADR-RES = tested on: NCI/ADR-RES
ACHN = tested on: ACHN
DU-145 = tested on: DU-145
MDA-N = tested on: MDA-N
BT-549 = tested on: BT-549
MDA-MB-435 = tested on: MDA-MB-435
Hs-578T = tested on: Hs-578T
RXF 393 = tested on: RXF 393
TK-10 = tested on: TK-10
Malme-3M = tested on: Malme-3M
NCI-H226 = tested on: NCI-H226
786-0 = tested on: 786-0

Measured: GI50

CCC(=O)NC(Nc1cccc(F)c1)(C(F)(F)F)C(F)(F)F
inactive: HOP-92 > 100 µM | MCF7 > 100 µM | LOX IMVI > 100 µM | PC-3 > 100 µM | T47D > 100 µM | SR > 100 µM | MDA-MB-231 > 100 µM | NCI/ADR-RES > 100 µM | ACHN > 100 µM | DU-145 > 100 µM | MDA-N > 100 µM | BT-549 > 100 µM | MDA-MB-435 > 100 µM | Hs-578T 98.6 µM | RXF 393 > 100 µM | TK-10 > 100 µM

C[C@H]1S[C@@H](c2ccc(Cl)cc2Cl)N(NC(=O)c2ccncc2)C1=O
inactive: HOP-92 60.5 µM | MCF7 45 µM | PC-3 33 µM | T47D 33 µM | SR 79.4 µM | MDA-MB-231 49.2 µM | NCI/ADR-RES 21.7 µM | Malme-3M > 100 µM | DU-145 71.3 µM | MDA-N > 10 µM | NCI-H226 41.6 µM | BT-549 39.4 µM | MDA-MB-435 43.6 µM | Hs-578T 94.2 µM | RXF 393 25.4 µM

COc1ccccc1C(=O)c1c(NCc2ccccc2)c(=O)c1=O
inactive: HOP-92 > 100 µM | LOX IMVI 29.9 µM | PC-3 > 100 µM | MDA-MB-231 > 100 µM | NCI/ADR-RES > 100 µM | Malme-3M 23.4 µM | ACHN > 100 µM | DU-145 > 100 µM | MDA-N > 100 µM | NCI-H226 > 100 µM | 786-0 40.2 µM | BT-549 66.8 µM | MDA-MB-435 > 100 µM | Hs-578T > 100 µM | TK-10 > 100 µM
active: MCF7 0.0254 µM | RXF 393 0.0708 µM

Nc1ccccc1C(=O)N/N=C1\C(=O)Nc2ccccc21
inactive: MCF7 > 100 µM | PC-3 > 100 µM | T47D > 100 µM | SR > 100 µM | MDA-MB-231 19.6 µM | NCI/ADR-RES > 100 µM | Malme-3M > 100 µM | ACHN 56.4 µM | DU-145 > 100 µM | MDA-N > 100 µM | NCI-H226 > 100 µM | 786-0 37.6 µM | BT-549 30.8 µM | MDA-MB-435 > 100 µM | Hs-578T 37.7 µM | RXF 393 68.7 µM | TK-10 32.5 µM

Cc1n[nH]c(CC#N)n1
inactive: HOP-92 > 100 µM | MCF7 > 100 µM | LOX IMVI > 100 µM | PC-3 > 100 µM | SR > 100 µM | MDA-MB-231 > 100 µM | NCI/ADR-RES > 100 µM | ACHN > 100 µM | DU-145 > 100 µM | MDA-N > 100 µM | 786-0 > 100 µM | BT-549 > 100 µM | MDA-MB-435 > 100 µM | RXF 393 > 100 µM | TK-10 > 100 µM

Cc1ccc(/N=N/C(C(=O)c2ccccc2)C(=O)c2ccccc2)cc1
inactive: HOP-92 13.6 µM | Malme-3M 29.9 µM | ACHN 26.6 µM | NCI-H226 17.6 µM | 786-0 16.7 µM | TK-10 41.4 µM

Cc1ccc(OCC2OC(n3cnc4c(Cl)nc(N)nc43)CC2Oc2ccc(C)cc2)cc1 (centres undefined)
inactive: HOP-92 11 µM | MCF7 2.75 µM | LOX IMVI 47.9 µM | PC-3 35.4 µM | T47D 20.3 µM | SR 36 µM | MDA-MB-231 22.4 µM | NCI/ADR-RES 34.4 µM | Malme-3M 24.5 µM | ACHN 15.6 µM | DU-145 40.8 µM | MDA-N 7.93 µM | NCI-H226 > 43.5 µM | 786-0 55.5 µM | BT-549 43.3 µM | MDA-MB-435 > 57.1 µM | Hs-578T 39.4 µM | RXF 393 39.9 µM | TK-10 58.6 µM

COC(=O)C(F)C(Br)C(=O)OC (centres undefined)
inactive: HOP-92 2.56 µM | MCF7 3.42 µM | LOX IMVI 6.41 µM | PC-3 3.63 µM | T47D 2.15 µM | SR 1.37 µM | MDA-MB-231 14.6 µM | NCI/ADR-RES 2.94 µM | Malme-3M 6.47 µM | ACHN 1.86 µM | DU-145 9.55 µM | MDA-N 8.51 µM | NCI-H226 20.9 µM | 786-0 2.52 µM | BT-549 16.2 µM | MDA-MB-435 8.38 µM | Hs-578T 16.6 µM | RXF 393 2.18 µM | TK-10 2.38 µM
